Like-named read-outs stand apart in the source and are kept apart here.
Tests used:
[1] = test system: tPA-induced lysis of clot formed in whole blood; assay: Thromboelastography, tPA-induced clot lysis in whole blood; type: biochemical
Experimental: The effect of different concentrations of KD1-Y11T/R15K/L17R-KCOOH (KD1TM) on fibrinolysis was evaluated with thromboelastography (TEG) using a TEG 5000 Thrombelastograph (Haemonetics Corp, Braintree, MA, USA). Each clot formation/lysis assay contained 300 μL of citrated whole blood, thrombin (0.15 μM, final concentration), tPA (2 nM, final concentration), CaCl2) (10 mM, final concentration) and various concentrations of KD1TM in TBS/BSA (50 mM Tris-HCl, 100 mM NaCl, containing 0.1 mg bovine serum albumin/mL) to make the final volume to 360 μL. Thrombin, tPA and CaCl2) were added last to initiate simultaneous clotting and fibrinolysis. […] Each experiment was performed at least 60 min after the maximal amplitude was reached to establish the LY60 value. TEG Analytical Software (version 4.2.3; Haemonetics Corporation, Braintree, MA, USA) was used to calculate the time to clot initiation (R), maximal clot strength (maximal amplitude (MA), which was directly related to the shear elastic modulus strength, G), and percent lysis 60 min after MA (LY60).

HUVEC = type: cell-based, human
Experimental: (§1) Resazurin reduction assay (Fisher Scientific) was used to evaluate the potential cytotoxicity of antifibrinolytic agents toward primary human endothelial cells and skin fibroblasts. Phosphate buffer that was used to dissolve the samples was included as negative control. The assay is based on reduction of the non-fluorescent dye resazurin, to the highly fluorescent resorufin by viable cells. […] Briefly, cells in 96-well cell culture plates were treated with different concentrations of antifibrinolytic compounds (as described above). After 24 hours resazurin reagent was added to each well and the plates were incubated at 37° C. for 4 hours. Fluorescence was measured by the FLUOstar Omega Microplate Reader (BMG Labtech) using an excitation wavelength of 544 nm and an emission wavelength of 590 nm. Each assay was done in duplicate, with three replicates each. The viability was evaluated based on comparison with untreated cells.

Plasma kallikrein (pKLK) = target: T1, Plasma kallikrein (pKLK) (Homo sapiens, UniProt P03952); assay: Protease inhibition assay, plasma kallikrein; type: biochemical
T1 construct: Plasma kallikrein (pKLK) was from Enzyme Research Laboratories; purchased Enzyme Research Laboratories (South Bend, IN)
T1 sequence (P03952 20-390 limits assumed): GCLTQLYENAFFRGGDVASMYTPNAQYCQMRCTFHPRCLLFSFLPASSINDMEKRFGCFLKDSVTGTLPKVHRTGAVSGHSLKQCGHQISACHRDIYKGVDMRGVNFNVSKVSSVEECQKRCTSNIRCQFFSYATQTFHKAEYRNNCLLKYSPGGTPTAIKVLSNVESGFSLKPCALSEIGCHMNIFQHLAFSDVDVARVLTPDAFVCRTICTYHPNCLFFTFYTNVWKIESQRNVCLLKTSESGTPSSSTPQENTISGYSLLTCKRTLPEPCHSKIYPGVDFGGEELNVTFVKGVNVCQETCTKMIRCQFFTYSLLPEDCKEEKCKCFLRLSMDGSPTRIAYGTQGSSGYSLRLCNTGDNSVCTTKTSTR
T1 sequence (P03952 391-638 limits assumed): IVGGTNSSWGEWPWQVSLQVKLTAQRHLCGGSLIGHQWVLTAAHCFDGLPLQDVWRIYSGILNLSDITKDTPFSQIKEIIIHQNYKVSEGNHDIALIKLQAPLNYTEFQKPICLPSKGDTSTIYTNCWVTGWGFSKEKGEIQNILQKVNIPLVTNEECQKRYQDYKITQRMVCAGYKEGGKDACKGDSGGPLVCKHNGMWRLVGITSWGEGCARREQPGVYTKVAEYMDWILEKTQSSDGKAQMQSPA
Experimental: (§2) All reactions were carried out in TBS, pH 7.5 (50 mM Tris-HCL, pH 7.5, containing 100 mM NaCl), containing 0.1 mg bovine serum albumin/ml (TBS/BSA) and 2 mM Ca2+(TBS/BSA/Ca2+, pH 7.5). […] The inhibition constant, K* was determined using the nonlinear regression data analysis program Grafit.
(§3) Ki values were obtained by correcting for the effect of substrate according to Beith (38), using equation 2, where (S) is substrate concentration and KM is specific for each enzyme.

DIP-δplasmin = assay: Surface plasmon resonance binding to DIP-δplasmin
Experimental: Active-site blocked δplasmin was generated by treating δplasmin with equal volumes of 1 M Tris-HCl, pH 8.0 and 1 M DFP (final concentration of 1 mM DFP) at room temperature for 20 minutes, followed by an incubation on ice for several hours. Additional equal volumes of 1M Tris-HCl, pH 8.0 and 1M DFP (final concentration of 2 mM) were added and the reaction was incubated at room temperature for 20 minutes and then over night at 4° C. The DFP inhibited Splamsin (DIP-δplasmin) was dialyzed against 20 mM HEPES pH 7.5, containing 150 mM NaCl and assayed for residual activity using S-2251 synthetic substrate hydrolysis. Based upon the residual activity, >99% of the δplasmin was inactivated.
(§4) Binding studies were performed on a Biacore T100 flow biosensor (Biacore, Uppsala, Sweden) at 25° C. DIP-δplasmin (˜98% purity using SDS-PAGE) or tPA (>98% purity using SDS-PAGE) was immobilized on carboxymethyl-dextran flow cell (CM5 sensor chips, GE Healthcare) using amine-coupling chemistry. Flow cell surfaces were activated with a mixture of 1-ethyl-3-(3-dimethylaminopropyl) carbodiimide and N-hydroxysulfosuccinimide for 5 min (flow rate 10 μl/min), after which the protein (20 μg/ml in 10 mM sodium acetate, pH 5.5) was injected onto the surface. Unreacted sites were blocked for 5 minutes with 1 M ethanolamine. The analyte KD1-Y11T/L17R-KT (100 to 2000 nM) was perfused through flow cells in HBS-P buffer (20 mM HEPES, pH 7.4, 100 mM NaCl, 0.005% (v/v) P20) at 10 μl/minutes for 6 minutes. After changing to HBS-P buffer without the protein, analyte dissociation was monitored for 10 min. Flow cells were regenerated with HBS-P containing 20 mM EACA. Data were corrected for nonspecific binding by subtracting signals obtained with the analyte infused through a flow cell without the coupled protein. Binding was analyzed with BIAevaluation software (Biacore) using a 1:1 binding model. Kd values were calculated from the quotient of the derived dissociation (kd) and association (ka) rate constants.

[2] = test system: primary human dermal skin fibroblasts; assay: Resazurin reduction (alamarBlue) viability assay, skin fibroblasts; type: cell-based
Experimental: as §1

human plasmin = target: T2, human plasmin (Homo sapiens, UniProt P00747); assay: Stability study: plasmin inhibition after storage; type: biochemical; settings: 0.59 mg/ml kept at 4° C., room temperature and 37° C. for a week
T2 construct: purchased Hematologic Technologies Inc (Essex Junction, VT)
T2 sequence (P00747 97-580 limits assumed): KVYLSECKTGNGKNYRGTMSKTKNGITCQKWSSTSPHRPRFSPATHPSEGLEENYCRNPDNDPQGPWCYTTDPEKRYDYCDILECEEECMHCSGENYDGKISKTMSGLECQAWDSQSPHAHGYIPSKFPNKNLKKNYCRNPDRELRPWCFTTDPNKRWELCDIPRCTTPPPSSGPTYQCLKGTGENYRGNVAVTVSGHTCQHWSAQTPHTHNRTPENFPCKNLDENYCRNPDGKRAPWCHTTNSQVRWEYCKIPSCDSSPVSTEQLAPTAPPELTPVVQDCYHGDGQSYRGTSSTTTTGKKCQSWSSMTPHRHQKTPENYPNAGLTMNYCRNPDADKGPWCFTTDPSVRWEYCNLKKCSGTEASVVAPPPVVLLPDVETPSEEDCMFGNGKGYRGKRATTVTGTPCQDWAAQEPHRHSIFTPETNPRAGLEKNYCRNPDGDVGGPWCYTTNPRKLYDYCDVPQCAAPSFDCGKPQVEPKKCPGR
T2 sequence (P00747 581-810 limits assumed): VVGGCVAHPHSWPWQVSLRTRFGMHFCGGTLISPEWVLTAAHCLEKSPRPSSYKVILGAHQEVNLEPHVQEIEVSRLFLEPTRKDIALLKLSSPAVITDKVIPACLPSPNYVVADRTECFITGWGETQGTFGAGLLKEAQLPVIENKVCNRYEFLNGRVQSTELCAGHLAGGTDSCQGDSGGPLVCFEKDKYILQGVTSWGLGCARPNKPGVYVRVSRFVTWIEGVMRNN
Experimental: In stability studies, the KD1Y11T/R15K/L17R-KT sample (0.59 mg/ml) was kept at 4° C., at room temperature and at 37° C. for a week and its plasmin inhibition was studied each day. […] Reactions were carried out in TBS/BSA and 2 mM calcium. Human plasmin was incubated with various concentrations of rHuKD1-TM for 1 hour at room temperature in a 96-well microtiter plate. Synthetic substrate for plasmin was then added to a final concentration of 1 KM, and residual amidolytic activity was measured in a kinetic microplate reader (Molecular Devices). In Table 7 below, the apparent inhibition constant, Ki* was determined using the nonlinear regression data analysis program. Data are analyzed using an equation for a tight-binding inhibitor and Ki values are obtained by correcting for the effect of substrate concentration.

[3] = test system: tPA-induced plasma clot fibrinolysis; assay: Fibrinolysis (clot lysis) assay in normal pooled plasma; type: biochemical; settings: human NPP
Experimental: The method of Sperzel and Huetter (40) was followed with minor modifications as outlined earlier (32,41). Briefly, IIa was used to initiate fibrin formation in NPP and the lysis of the formed clot (fibrinolysis) was induced by simultaneous addition of tPA. Clot formation and lysis were monitored with a Molecular Devices microplate reader (SPECTRAmax 190) measuring the optical density at 405 nm. […] Two hundred twenty-five μL of this mixture was then added to 25 μL IIa and tPA in TBS/BSA containing 25 mM CaCl2). In the 250 μL final volume, concentration of IIa was 0.15 μg/ml and that of tPA was 1 μg/ml. Under control conditions (zero tPA and zero test compound), OD405 increased immediately indicating clotting followed by an extremely slow decrease representing fibrinolysis. As clotting was almost complete after 5 minutes, fibrinolysis induced by tPA was evaluated as a relative decrease of OD405 up to 60 minutes.
Addition of thrombin (IIa) to human normal pooled plasma (NPP) caused fibrin formation, which is reflected by the increase in OD405 (black curve, FIGS. 3A and 3B). Simultaneous addition of tPA caused initial clot formation followed by dissolution of fibrin induced by tPA-mediated conversion of plasminogen to plasmin (black curve with closed circles, FIGS. 3A and 3B); the midpoint of fibrinolysis was ˜8 min in each case. Both antifibrinolytic agents inhibited fibrinolysis in a dose-dependent manner.

FVIIa/sTF = target: T3, FVIIa/sTF (Homo sapiens, UniProt P08709); assay: Protease inhibition assay, FVIIa/soluble tissue factor; type: biochemical; settings: up to 3 μM inhibitor; 20 nM FVIIa/sTF; triplicate
T3 construct: human factor VIIa (FVIIa) was prepared as described previously (34)
T3 sequence (P08709 213-466 limits assumed): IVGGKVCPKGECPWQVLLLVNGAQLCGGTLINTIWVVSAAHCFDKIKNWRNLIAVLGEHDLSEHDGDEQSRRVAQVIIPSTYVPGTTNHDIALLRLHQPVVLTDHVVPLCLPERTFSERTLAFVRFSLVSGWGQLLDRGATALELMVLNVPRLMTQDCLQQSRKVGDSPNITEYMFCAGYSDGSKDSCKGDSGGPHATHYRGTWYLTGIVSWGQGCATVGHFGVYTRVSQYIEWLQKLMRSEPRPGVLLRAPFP
T3 sequence (P08709 61-212 limits assumed): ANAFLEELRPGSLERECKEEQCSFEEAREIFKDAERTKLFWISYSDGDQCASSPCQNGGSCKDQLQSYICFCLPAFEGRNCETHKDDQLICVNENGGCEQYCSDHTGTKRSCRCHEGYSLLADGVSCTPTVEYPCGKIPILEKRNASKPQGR
T3 sequence (P13726 33-251 partner limits assumed): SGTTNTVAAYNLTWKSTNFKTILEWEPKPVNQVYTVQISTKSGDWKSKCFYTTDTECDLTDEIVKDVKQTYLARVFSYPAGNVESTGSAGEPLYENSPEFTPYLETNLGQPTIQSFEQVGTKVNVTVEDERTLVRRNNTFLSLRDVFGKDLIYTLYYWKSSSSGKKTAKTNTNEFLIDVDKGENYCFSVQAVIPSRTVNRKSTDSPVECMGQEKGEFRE
Experimental: as §2, §3

mouse injury models = settings: liver laceration model and tail amputation model; cited from earlier work
[4] = test system: plasmin induced lysis of clot formed in whole blood; assay: Thromboelastography, plasmin induced clot lysis in whole blood; type: biochemical, human
Experimental: Plasmin and CaCl2) were added last to initiate simultaneous clotting and fibrinolysis. […] The thromboelastograph was calibrated each day and each inhibitor concentration was tested in duplicate. TEG Analytical Software (version 4.2.2; Haemonetics Corporation, Braintree, MA) was used to calculate the time to clot initiation (R), maximal clot strength (maximal amplitude (MA), which was directly related to the shear elastic modulus strength, G), and percent lysis 60 minutes after MA (LY60) (42).

tPA = target: T4, tPA (Homo sapiens, UniProt P00750); assay: Surface plasmon resonance binding to tPA; settings: 25° C; 1:1 binding model
T4 construct: purchased Genentech (South San Francisco, CA)
T4 sequence (P00750 36-562): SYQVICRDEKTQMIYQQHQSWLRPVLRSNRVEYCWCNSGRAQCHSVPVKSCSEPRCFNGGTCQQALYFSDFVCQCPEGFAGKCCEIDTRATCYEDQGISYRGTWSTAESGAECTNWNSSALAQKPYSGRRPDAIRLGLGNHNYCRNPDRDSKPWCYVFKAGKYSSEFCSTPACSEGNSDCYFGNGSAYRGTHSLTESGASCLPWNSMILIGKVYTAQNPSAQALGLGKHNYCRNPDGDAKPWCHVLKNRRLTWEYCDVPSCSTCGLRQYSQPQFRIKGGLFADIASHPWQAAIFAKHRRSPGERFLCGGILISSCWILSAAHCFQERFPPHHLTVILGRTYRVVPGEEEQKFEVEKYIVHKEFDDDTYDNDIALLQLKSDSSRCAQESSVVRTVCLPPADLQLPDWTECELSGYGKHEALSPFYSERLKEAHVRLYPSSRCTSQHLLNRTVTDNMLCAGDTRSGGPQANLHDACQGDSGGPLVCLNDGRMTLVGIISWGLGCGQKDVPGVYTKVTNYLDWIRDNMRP
Experimental: as §4

human FXIa = target: T5, human FXIa (Homo sapiens, UniProt P03951); assay: Protease inhibition assay, factor XIa; type: biochemical; settings: up to 3 μM inhibitor; 1 nM FXIa; triplicate
T5 construct: Purified human FXIa, thrombin (IIa) and plasmin were purchased; purchased Hematologic Technologies Inc (Essex Junction, VT)
T5 sequence (P03951 19-387 limits assumed): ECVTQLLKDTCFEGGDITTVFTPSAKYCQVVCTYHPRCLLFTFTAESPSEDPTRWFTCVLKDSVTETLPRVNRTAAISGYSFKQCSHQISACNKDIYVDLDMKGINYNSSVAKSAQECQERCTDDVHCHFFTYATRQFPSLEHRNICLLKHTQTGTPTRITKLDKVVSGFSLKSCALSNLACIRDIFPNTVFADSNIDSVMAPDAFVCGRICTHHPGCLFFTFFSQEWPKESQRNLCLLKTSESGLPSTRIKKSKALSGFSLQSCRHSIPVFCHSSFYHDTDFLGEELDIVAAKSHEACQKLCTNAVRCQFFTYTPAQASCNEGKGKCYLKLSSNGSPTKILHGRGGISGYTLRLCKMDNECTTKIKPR
T5 sequence (P03951 388-625 limits assumed): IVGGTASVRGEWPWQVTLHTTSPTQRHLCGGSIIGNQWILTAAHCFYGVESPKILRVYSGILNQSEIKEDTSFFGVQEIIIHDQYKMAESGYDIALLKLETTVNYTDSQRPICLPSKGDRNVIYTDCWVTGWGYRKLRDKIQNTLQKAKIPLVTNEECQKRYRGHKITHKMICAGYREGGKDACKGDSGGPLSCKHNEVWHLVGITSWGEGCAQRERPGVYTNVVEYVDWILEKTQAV
Experimental: as §2, §3

[5] = NHB + […] plasmin, inhibitor 5 μM

KD1Y11T/R15K/L17R-KT: 60-residue triple mutant of Kunitz domain1 of human TFPI-2, SEQ ID NO: 1, C-terminal IEK, expressed in Pichia (NAEICLLPLDTGPCKARLLRYYYDRYTQSCRQFLYGGCEGNANNFYTWEACDDACWRIEK)
G ([1]; 2 nM tPA + 2 μM KD1TM, […] thrombin): 3525.4 dyn/cm^2 | MA ([1]; 2 nM tPA + 4 μM KD1TM, […] thrombin): 44.2 mm | Clot strength MA restored, relative to blood without tPA ([1]; 2 nM tPA, 4 μM KD1TM): 98% | G restored, relative to blood without tPA ([1]; 2 nM tPA, 4 μM KD1TM): 96% | HUVEC viability (FIG. 4) (HUVEC): not significantly different from the untreated cells | Concentration until which kallikrein inhibition is not observed (Plasma kallikrein (pKLK)): 25 µM | Kd (DIP-δplasmin; read-out: Affinity of binding to the plasmin kringle domain): ~0.04 µM | Fibroblast cell viability (FIG. 5) [2]: not significantly different from the untreated cells | Stability of plasmin inhibition on storage (human plasmin): plasmin inhibitory properties are not altered | Fibrinolysis midpoint (Example 2) ([3]; 0.5 μM inhibitor + tPA, ˜8 min without inhibitor): ~15 min | Effect on tPA induced fibrinolysis (Example 2) ([3]; 3 μM inhibitor + tPA): completely prevented tPA induced fibrinolysis | Effect on clot formation or fibrinolysis in the absence of tPA (Example 2) ([3]; 3 μM inhibitor, no tPA): had no effect on clot formation or fibrinolysis

KD1-Y11T/L17R-KT: 60-residue double mutant (Y11T/L17R) of Kunitz domain1 of human TFPI-2 with C-terminal IEK (NAEICLLPLDTGPCRARLLRYYYDRYTQSCRQFLYGGCEGNANNFYTWEACDDACWRIEK)
Inhibition profile with FVIIa/sTF (FVIIa/sTF): No inhibition was observed | Inhibition profile with pKLK (Plasma kallikrein (pKLK); up to 3 μM inhibitor, 1 nM pKLK, triplicate): No inhibition was observed | Prevention of blood loss (mouse injury models): successful in preventing blood loss | G [4, 5]: ~3004 dyn/cm^2 | LY60 [4, 5]: ~12% | Clot strength MA restored, relative to blood without plasmin ([4]; […] plasmin, inhibitor 5 μM): ~80% | G restored, relative to blood without plasmin ([4]; […] plasmin, inhibitor 5 μM): ~65% | G restored, relative to blood without plasmin ([4]; […] plasmin, inhibitor 7.5 μM): ~70% | MA restored, relative to blood without plasmin ([4]; […] plasmin, inhibitor 7.5 μM): ~83% | Kd (tPA): ~0.035 µM | koff, tPA (tPA): 1.05±0.7×10^−4 s^−1 | kon, tPA (tPA): 2.91±0.4×10^3 M^−1s^−1 | Inhibition profile with FXIa (human FXIa): No inhibition was observed | koff, DIP-δplasmin (DIP-δplasmin; 25° C, 1:1 binding model): 7.13±0.9×10^−5 s^−1 | kon, DIP-δplasmin (DIP-δplasmin; 25° C, 1:1 binding model): 1.49±0.3×10^3 M^−1s^−1 | Kd (DIP-δplasmin; 25° C, 1:1 binding model, read-out: Kd, DIP-δplasmin (kringle domain of plasminogen/plasmin)): ~0.05 µM | Max OD405 ([3]; 0.5 μM inhibitor + tPA): 1.54 ± 0.14 | OD405 at 60 min ([3]; 0.5 μM inhibitor + tPA): 0.85 ± 0.13 | Fibrinolysis midpoint time ([3]; 1.0 μM inhibitor + tPA): 27 ± 1.1 min | Max OD405 ([3]; 1.0 μM inhibitor + tPA): 1.54 ± 0.11 | OD405 at 60 min ([3]; 1.0 μM inhibitor + tPA): 0.84 ± 0.12 | Fibrinolysis midpoint time ([3]; 2.0 μM inhibitor + tPA): >60 min | Max OD405 ([3]; 2.0 μM inhibitor + tPA): 1.58 ± 0.09 | OD405 at 60 min ([3]; 2.0 μM inhibitor + tPA): 1.35 ± 0.06 | Fibrinolysis midpoint time ([3]; 3.0 μM inhibitor + tPA): >60 min | Max OD405 ([3]; 3.0 μM inhibitor + tPA): 1.71 ± 0.10 | OD405 at 60 min ([3]; 3.0 μM inhibitor + tPA): 1.57 ± 0.08 | OD405 at 60 min ([3]; […] inhibitor + tPA): 0.86 ± 0.15

Reference: patent US20230331817A1 (The Regents of the University of California, priority 2020, published 2023)
